# Patent US20250243160A1, “INDOLE DERIVATIVES FOR TARGETING AUTOPHAGY” (Automera PTE. LTD, priority 2024, published 2025)
# Legend:
# Recombinant p62 protein = Recombinant p62 protein (Homo sapiens, UniProt Q13501); test: Surface plasmon resonance (SPR) compound binding to p62; settings: 15° C
# Method: Recombinant p62 protein was buffer exchanged into Biacore SPR running buffer (Cytiva 100671) using the Slide-A-Lyzer Mini Dialysis system 7K MWCO (Thermo Fisher Scientific, Cat no. 69560). The final protein concentration was determined using the Nanodrop One spectrophotometer (Thermo Fisher Scientific, cat no. ND-ONE-W), with calibration for the dialysis buffer.
# The prepared protein was diluted in sodium acetate buffer (NaAc, pH 5.5, Cytiva) to concentrations ranging from approximately 0.25-40 μg/mL. Post-immobilization, the protein required approximately 16 hours of equilibration in running buffer supplemented with 1% DMSO at 15° C. to ensure adequate surface equilibration and protein reorganization.
# All SPR experiments were conducted at a constant temperature of 15° C. The SPR chip surface was activated using EDC/NHS for a contact time of 6-10 min at a flow rate of 10 μL/min. This was followed by protein immobilization for 2100 seconds and ethanolamine capping for 420 seconds, both at the same flow rate. Immediately after immobilization, the NH2-REEE peptide was analyzed in Single Cycle Kinetics mode (SCK) to verify surface activity, ensuring it binds the sample with the published affinity (˜20 μM by SPR).
# For general compound binding studies, experiments were performed at 15° C. using a running buffer composed of 10 mM HEPES, 150 mM NaCl, 1 mM DTT, 0.05% Tween 20, and 1% DMSO at pH 7.4. The test compound was initially prepared at a 20 mM concentration in DMSO and subsequently titrated in 2-fold dilutions. For each assay, 2 μL of the compound was mixed with 198 μL of the running buffer, and the mixture was thoroughly pipetted approximately 15 times for homogenization.
# A series of blank injections (0 μM concentration) were included for double referencing, with at least 8 or 16 per plate depending on the format. Typical injection parameters were 120 seconds for association and 180 seconds for dissociation at a flow rate of […]. A four-point solvent correction was prepared with DMSO concentrations ranging from 2% to 0.5% in the buffer. Post each compound injection, the system's needles were washed with 50% DMSO.
# Analysis of the SPR data was conducted using the Cytiva Evaluation software. The binding levels at the late time-point of each interaction were corrected for reference, then normalized to percentage bound values to account for variations in immobilization levels, protein molecular weight, and compound molecular weight.
# Compound binding studies were carried out according to experimental procedures above and SPR % occupancy was determined and summarized in Table 7.
# p62 oligomers = target: T1, p62 oligomers (Homo sapiens, UniProt Q13501); test: p62 oligomerization assay by Western blot in HeLa cells; assay type: cell-based; settings: 24 hours treatment, relative to vehicle control (DMSO)
# T1 construct: endogenous in cells; host or cells: HeLa
# Method: (§1) HeLa cells were seeded in 6-well plates (700,000 cells) and allowed to adhere overnight. Media was replaced one hour before administering either vehicle (DMSO) or test compounds. After 24 hours of treatment, the media was discarded, and cells were rinsed once with ice-cold 1×PBS before detached from plates with ice-cold RIPA Lysis and Extraction Buffer (Thermo Fisher Scientific) which was supplemented with protease and phosphatase inhibitors. The resulting cell suspensions were transferred to pre-chilled microcentrifuge tubes, incubated on ice for 20 min with intermittent mixing and then centrifuged at 12,000 rpm for 20 min at 4° C. The supernatants were then aspirated slowly and transferred into new tubes kept on ice. The protein concentration in the samples was determined using BCA kit (Thermo Fisher Scientific) as per manufacturer's instructions.
# (§2) For the p62 oligomerization and LC3 lipidation assays, cell lysates were prepared using RIPA buffer supplemented with 2% SDS and benzonase (Sigma). The lysates were then combined with 4× Laemmli protein sample buffer (Bio-Rad), heated at 70° C. for 10 min and subjected to a brief centrifugation of 10-15 seconds.
# (§3) For p62 oligomerization and LC3 lipidation assays, lysates containing 30 μg of protein and for BRD4 and FKBP12(F36V) degradation assays, lysates containing 20 μg of protein, were loaded slowly into the wells of 4-20% gradient Tris-glycine gels (Bio-Rad). The gels were run at 100V until completion and transferred onto PVDF membranes. Membranes were blocked using 5% milk in TBS-Tween (0.1%) buffer at room temperature for 1 hour. The membranes were incubated with primary antibody in 5% milk-TBST with shaking, overnight at 4° C. The primary antibodies used were: p62 (Novus Biologicals 2C11, H00008878-MO1), LC3A/B (Cell Signalling Technology D3U4C, 12741S), FKBP12 (Abcam ab24373), BRD4 (Cell Signalling Technology E2A7X, 13440S), GAPDH (Cell Signalling Technology D4C6R, 97166S), and β-Actin (Proteintech 66009-1-Ig). Following primary antibody incubation, membranes were washed thrice with TBST 10 min before and after incubation with secondary-HRP conjugated antibody in 5% milk-TBST for 1 hour at room temperature. The secondary antibodies used were: Anti-Mouse IgG HRP Conjugate (Promega W4021B) and Anti-Rabbit IgG HRP Conjugate (Promega W4011). For the p62 oligomerization assay, the total protein levels were assessed using Ponceau staining (Thermo Fisher Scientific) of PVDF membrane as per recommendation by manufacturer's guidelines.
# (§4) Imaging was acquired using SuperSignal™ West Pico PLUS Chemiluminescent Substrate (Thermo Fisher Scientific) with iBright Invitrogen FL100 imaging system. Band signal intensity, reflective of protein concentrations, were quantified using Invitrogen™ iBright™ Analysis and Image J software.
# HeLa cells were treated with compounds for 24 hours to evaluate the effect of these compounds on p62 oligomerisation activity. The resulting changes in levels of p62 oligomers were assessed by Western blotting, as described in experimental procedures. The fold change of p62 oligomer levels induced by compound treatment relative to vehicle control (DMSO) was determined and summarized in Table 8. Specifically, FIGS. 2A-C show Western blot images and their corresponding quantification showing the levels of high molecular weight (100-200 kDa) p62 oligomers by 24 hours compound treatments at listed concentrations, relative to vehicle control (DMSO) in HeLa cells. Protein loading consistencies was assessed by Ponceau staining (not shown).
# LC3 protein = test: LC3 lipidation (LC3-II/LC3-I) assay by Western blot in HeLa cells; assay type: cell-based; set-up: key: ++: >2-fold change in LC3-II/LC3-I relative to DMSO control; +: <2-fold change in LC3-II/LC3-I relative to DMSO control; −: no change in LC3-II/LC3-I relative to DMSO control; settings: 24 hours treatment, relative to vehicle control (DMSO)
# Method: as §1, §2, §3, §4
# HeLa cells were treated with compounds for 24 hours to evaluate the effect of these compounds on LC3-II/LC3-I levels, a measure of autophagy activation. The changes in levels of LC3-I, LC3-II and […] (loading control) were assessed by Western blotting, as described in experimental procedures. The fold increase of LC3-II/LC3-I levels induced by compound treatment relative to vehicle control (DMSO) was determined and summarized in Table 9. Specifically, FIGS. 3A-C show Western blot images and their corresponding quantification showing the lipidation levels of LC3 protein (LC3-II/LC3-I) by 24 hours compound treatments at listed concentrations, relative to vehicle control (DMSO) in HeLa cells.
# Chain of Recombinant p62 protein (Q13501 whole entry, species assumed): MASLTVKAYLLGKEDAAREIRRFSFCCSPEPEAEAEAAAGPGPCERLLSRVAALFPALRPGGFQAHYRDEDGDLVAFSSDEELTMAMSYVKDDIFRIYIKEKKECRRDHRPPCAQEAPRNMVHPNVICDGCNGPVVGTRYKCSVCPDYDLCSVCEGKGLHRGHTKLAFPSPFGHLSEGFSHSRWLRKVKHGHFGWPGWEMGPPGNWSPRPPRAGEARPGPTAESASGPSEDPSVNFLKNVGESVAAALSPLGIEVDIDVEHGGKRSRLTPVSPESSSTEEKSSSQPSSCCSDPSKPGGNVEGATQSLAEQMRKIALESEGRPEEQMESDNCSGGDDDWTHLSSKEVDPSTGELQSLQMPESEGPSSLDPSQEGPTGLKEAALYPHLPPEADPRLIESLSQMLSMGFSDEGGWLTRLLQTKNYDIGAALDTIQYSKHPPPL
# T1 sequence (Q13501 whole entry): as the sequence (Q13501 whole entry, species assumed) above
SMILES,receptor occupancy at 100 µM (Recombinant p62 protein) [%],p62 oligomerization (fold change of p62 oligomer levels) (p62 oligomers),LC3 lipidation (fold increase of LC3-II/LC3-I levels) (LC3 protein)
"CC(C)NCC(O)COc1cccc2c1ccn2Cc1ccccc1 (stereo not drawn) [Compound 6, 1-((1-benzyl-1H-indol-4-yl)oxy)-3-(isopropylamino)propan-2-ol]",30 to 70,++ (>2-fold change relative to DMSO control),+ (<2-fold change in LC3-II/LC3-I relative to DMSO control)
OCCNCc1cc(F)cc2c1ccn2Cc1ccccc1 [Compound 31],> 70,++ (>2-fold change relative to DMSO control),+ (<2-fold change in LC3-II/LC3-I relative to DMSO control)
"OCCNCc1cccc2c1ccn2Cc1c[nH]cn1 [Compound 21, 2-(((1-((1H-imidazol-4-yl)methyl)-1H-indol-4-yl)methyl)amino)ethan-1-ol]",30 to 70,+ (<2-fold change relative to DMSO control),−
Cc1cn(CC2CCOCC2)c2cccc(CNCCO)c12 [Compound 49],30 to 70,+ (<2-fold change relative to DMSO control),−
"Cc1cn(Cc2ccccc2)c2cccc(CNCCO)c12 [Compound 37, 2-(((1-benzyl-3-methyl-1H-indol-4-yl)methyl)amino)ethan-1-ol]",30 to 70,++ (>2-fold change relative to DMSO control),+ (<2-fold change in LC3-II/LC3-I relative to DMSO control)
OCCNCc1cccc2c1ccn2Cc1ccc(Cl)cc1 [Compound 11],> 70,++ (>2-fold change relative to DMSO control),++ (>2-fold change in LC3-II/LC3-I relative to DMSO control)
"OCCNCc1cccc2c1ccn2-c1ccccc1 [Compound 9, 2-(((1-phenyl-1H-indol-4-yl)methyl)amino)ethan-1-ol]",> 70,++ (>2-fold change relative to DMSO control),+ (<2-fold change in LC3-II/LC3-I relative to DMSO control)
OCCNCc1ccc(Cl)c2c1ccn2Cc1ccccc1 [Compound 35],> 70,++ (>2-fold change relative to DMSO control),++ (>2-fold change in LC3-II/LC3-I relative to DMSO control)
OCCNCc1cccc2c1ccn2CCC1CCNCC1 [Compound 26],30 to 70,++ (>2-fold change relative to DMSO control),+ (<2-fold change in LC3-II/LC3-I relative to DMSO control)
OCCNCc1cccc2c1ccn2Cc1cccc(Cl)c1 [Compound 13],30 to 70,++ (>2-fold change relative to DMSO control),+ (<2-fold change in LC3-II/LC3-I relative to DMSO control)
OCCNCc1cccc2c1ccn2Cc1ccc(F)cc1 [Compound 10],> 70,++ (>2-fold change relative to DMSO control),+ (<2-fold change in LC3-II/LC3-I relative to DMSO control)
